Source: patent publication US9884843B2 (Peloton Therapeutics, Inc., priority 2013, dated 2018)
Where two headings read alike, the source gives them in different places. One block for each compound: values may come before it.

Assays:
786-O-Hif-Luc cells = assay: Luciferase Assay (HIF responsive element reporter); format: cell-based; settings: read-out: Mean Luciferease EC50
Method: A pool of infected cells were then selected against 2 μg/mL of puromycin (P8833, Sigma) for 10 days followed by limited dilution to select single clones.
Each concentration was tested in triplicate. After about 24 hours, luciferase activity was determined using ONE-Glo Luciferase Assay Reagent (E6110, Promega) following the manufacturer's recommended procedure. EC50 were calculated by using Dotmatics software.

[1] = biological target: HIF-2α HIS TAG-PASB Domain (Homo sapiens, UniProt Q99814); assay: biochemical; format: binding
Chain of HIF-2α HIS TAG-PASB Domain (Q99814 whole entry, looked up, the tested form may be a part): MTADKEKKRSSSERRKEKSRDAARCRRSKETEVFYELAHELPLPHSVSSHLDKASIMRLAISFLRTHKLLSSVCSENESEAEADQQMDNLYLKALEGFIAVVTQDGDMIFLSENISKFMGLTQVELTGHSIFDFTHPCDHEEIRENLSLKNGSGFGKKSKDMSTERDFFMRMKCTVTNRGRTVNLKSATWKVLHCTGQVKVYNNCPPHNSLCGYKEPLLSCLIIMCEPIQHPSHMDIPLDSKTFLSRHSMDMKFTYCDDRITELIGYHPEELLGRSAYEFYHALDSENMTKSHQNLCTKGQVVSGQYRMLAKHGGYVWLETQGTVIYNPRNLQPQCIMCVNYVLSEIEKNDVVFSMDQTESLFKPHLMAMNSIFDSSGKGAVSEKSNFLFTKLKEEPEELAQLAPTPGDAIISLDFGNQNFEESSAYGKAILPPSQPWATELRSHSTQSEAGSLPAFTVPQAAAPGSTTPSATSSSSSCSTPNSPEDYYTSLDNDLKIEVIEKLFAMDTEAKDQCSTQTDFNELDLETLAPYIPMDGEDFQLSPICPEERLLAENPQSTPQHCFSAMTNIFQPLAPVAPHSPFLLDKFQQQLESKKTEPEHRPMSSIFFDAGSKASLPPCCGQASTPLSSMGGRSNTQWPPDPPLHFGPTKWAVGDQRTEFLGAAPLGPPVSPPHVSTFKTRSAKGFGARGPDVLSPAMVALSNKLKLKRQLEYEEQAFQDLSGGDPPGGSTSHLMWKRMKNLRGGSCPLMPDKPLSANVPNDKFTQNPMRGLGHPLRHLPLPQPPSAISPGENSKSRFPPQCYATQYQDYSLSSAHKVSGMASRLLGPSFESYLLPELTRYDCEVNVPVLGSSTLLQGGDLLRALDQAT
From the text: The term “scintillation proximity assay” (SPA) refers to a homogenous assay in which light is emitted when a radiolabeled ligand is brought into close proximity to a radiosensitive bead. The assay typically contains a target protein that contains a tag (e.g., His Tag, Glutathione S-transferase Tag). The tag on the protein is used to bind the target protein to the scintillation bead. Radiolabeled ligand (e.g., labeled with tritium) that binds to the protein is now in close proximity to the bead, and when the raidolabel (e.g., tritium) decays, the high energy particle hits the bead resulting in the emission of light that is detected by a detector, such as photomultiplier tube or CCD camera. When unlabeled ligands or compounds that bind to the protein are used in the assay, they displace the radiolabeled ligand, resulting in loss of signal.
The total assay volume was about 100 μL in the following configuration: 2-μL compound in DMSO, 88 μL buffer with protein and probe and 10 μL of SPA beads. […] To each compound, 88 μL of the buffer solution was then added. […] The percent inhibition was determined and IC50 values were calculated using the Dotmatics system based on the following equation: % inhibition=[(high control−sample)/(high control−low control)]×100.

[2] = 24 h, 786-O-Hif-Luc cells, about 24 hours
[3] = 786-O-Hif-Luc cells, about 24 hours
[4] = displacement of Compound 120 probe, mean, read-out: Mean SPA IC50
[5] = unnumbered compounds listed by structure and name, read-out: IC50 value in SPA

EC50 (786-O-Hif-Luc cells; [2]): 0.72 µM
SMILES: O=S1(=O)CC(O)c2c1ccc(Oc1cc(F)cc(F)c1)c2C(F)F (centres unmarked) [Compound 24, 4-(Difluoromethyl)-5-(3,5-difluorophenoxy)-3-hydroxy-2,3-dihydrobenzo[b]thiophene 1,1-dioxide]

EC50 (786-O-Hif-Luc cells; [3]): 0.29 µM
SMILES: N=S1(=O)c2ccc(Oc3cc(F)cc(F)c3)c(Br)c2C(O)C1(F)F (centres unmarked) [Compound 32, 4-bromo-5-(3,5-difluorophenoxy)-2,2-difluoro-3-hydroxy-1-imino-2,3-dihydro-1H-1λ^4-benzo[b]thiophene 1-oxide]

IC50 [1, 4]: 4.6 µM
SMILES: N#Cc1c(Oc2cc(F)cc(F)c2)ccc2c1C(O)(C(F)(F)F)CS2(=O)=O (centres unmarked) [Compound 102, 5-(3,5-Difluorophenoxy)-3-hydroxy-3-(trifluoromethyl)-2,3-dihydrobenzo[b]thiophene-4-carbonitrile 1,1-dioxide]

IC50 [1, 4]: 6.3 µM
SMILES: N#Cc1cc(F)cc(Oc2ccc3c(c2C#N)C(O)(C(F)(F)F)CS3(=O)=O)c1 (centres unmarked) [Compound 104, 5-(3-Cyano-5-fluorophenoxy)-3-hydroxy-3-(trifluoromethyl)-2,3-dihydrobenzo[b]thiophene-4-carbonitrile 1,1-dioxide]

IC50 [1, 4]: 16.7 µM
SMILES: CC1(O)c2c(ccc(OCc3ccccc3)c2C#N)S(=O)(=O)C1(F)F (centres unmarked) [Compound 113, 5-(Benzyloxy)-2,2-difluoro-3-hydroxy-3-methyl-2,3-dihydrobenzo[b]thiophene-4-carbonitrile 1,1-dioxide]

IC50 [1, 4]: > 100 µM
SMILES: C=CC1(O)c2c(ccc(Oc3cc(F)cc(C#N)c3)c2C#N)S(=O)(=O)C1(F)F (centres unmarked) [Compound 114, 5-(3-Cyano-5-fluorophenoxy)-2,2-difluoro-3-hydroxy-3-vinyl-2,3-dihydrobenzo[b]thiophene-4-carbonitrile 1,1-dioxide]

IC50 [1, 5]: > 100 µM
SMILES: N=S1(=O)CC(O)c2c1ccc(Oc1cc(F)cc(F)c1)c2Br (centres unmarked) [[4-bromo-5-(3,5-difluorophenoxy)-3-hydroxy-1-imino-2,3-dihydro-1λ^4-benzo[b]thiophene 1-oxide]

IC50 [1, 5]: 25 to 100 µM
SMILES: N#CN=S1(=O)C[C@H](O)c2c1ccc(Oc1cc(F)cc(F)c1)c2Cl (stereo partly drawn) [[(3R)-4-chloro-5-(3,5-difluorophenoxy)-3-hydroxy-1-oxo-2,3-dihydrobenzothiophen-1-ylidene]cyanamide]

Second part, the compound before the results:

SMILES: O=S1(=O)CC(O)c2c1ccc(Oc1cc(F)cc(Cl)c1)c2Br (centres unmarked) [Compound 6, 4-Bromo-5-(3-chloro-5-fluorophenoxy)-3-hydroxy-2,3-dihydrobenzo[b]thiophene 1,1-dioxide]
EC50 (786-O-Hif-Luc cells; 24 h): 4.85 µM

SMILES: O=S1(=O)CC(O)c2c1ccc(Oc1cc(F)cc(Cl)c1)c2C(F)F (centres unmarked) [Compound 15, 5-(3-Chloro-5-fluorophenoxy)-4-(difluoromethyl)-3-hydroxy-2,3-dihydrobenzo[b]thiophene 1,1-dioxide]
EC50 (786-O-Hif-Luc cells; [2]): 0.73 µM

SMILES: O=S1(=O)c2ccc(Oc3cc(F)cc(Cl)c3)c(C(F)F)c2C(O)C1(F)F (centres unmarked) [Compound 18, 5-(3-Chloro-5-fluorophenoxy)-4-(difluoromethyl)-2,2-difluoro-3-hydroxy-2,3-dihydrobenzo[b]thiophene 1,1-dioxide]
EC50 (786-O-Hif-Luc cells; [3]): 0.017 µM

SMILES: N#Cc1cc(F)cc(Oc2ccc3c(c2C(F)F)C(O)C(F)(F)S3(=O)=O)c1 (centres unmarked) [Compound 29, 3-((4-(Difluoromethyl)-2,2-difluoro-3-hydroxy-1,1-dioxido-2,3-dihydrobenzo[b]thiophen-5-yl)oxy)-5-fluorobenzonitrile]
EC50 (786-O-Hif-Luc cells; [3]): 0.004 µM

SMILES: N#Cc1cc(F)cc(Oc2ccc3c(c2C(F)F)[C@H](O)C(F)(F)S3(=O)=O)c1 [Compound 34, (S)-3-((4-(Difluoromethyl)-2,2-difluoro-3-hydroxy-1,1-dioxido-2,3-dihydrobenzo[b]thiophen-5-yl)oxy)-5-fluorobenzonitrile]
EC50 (786-O-Hif-Luc cells; 24 h): 0.02 µM

SMILES: CC1(O)c2c(ccc(OC3CC(F)(F)C3)c2C#N)S(=O)(=O)C1(F)F (centres unmarked) [Compound 115, 5-(3,3-Difluorocyclobutoxy)-2,2-difluoro-3-hydroxy-3-methyl-2,3-dihydrobenzo[b]thiophene-4-carbonitrile 1,1-dioxide]
IC50 [1, 4]: 6.7 µM
